# Measured values: US12595248B2, “PRMT5 inhibitors” (Merck Sharp & Dohme LLC, priority 2019, dated 2026)
# Like-named read-outs stand apart in the source and are kept apart here.
# What was measured:
# PRMT5 = biological target: T1, PRMT5 (Homo sapiens, UniProt O14744); assay: PRMT5 Cell Target Engagement (TE) Assay; assay type: cell-based; conditions: MCF-7 cells, treated for 3 days, symmetric dimethylation of arginine (SDMA) by high content imaging
# T1 construct: seeded with 4000 MCF-7 cells in 30 μl media; endogenous in cells; host or cells: MCF-7 cells
# Text: PRMT5 Cell Target Engagement (TE) Assay
# The PRMT5 TE assay is a biomarker assay for identifying compounds that inhibit symmetric dimethylation of arginine (SDMA) of PRMT5 substrates. The following substrates have been reported for PRMT5: histone H2A and H4 R3, Histone H3 R2, Histone H3 R8, spliceosome Sm proteins, ribosomal protein RPS10, p53, FEN1, nucleoplasmin, nucleolin, EGFR and EBNA. The assay focuses on detecting symmetrically dimethylated nuclear proteins using high content imaging technology. Detection of the expression of symmetrically dimethylated nuclear proteins is through a mixture of primary rabbit monoclonal antibodies to SDMA (CST 13222), which in turn recognized by an Alexafluor 488 dye-conjugated anti-rabbit IgG secondary antibody. The IN Cell Analyzer 2200 or Opera-Phenix measures nuclear Alexafluor 488 fluorescent dye intensity that is directly related to the level of expression of symmetrically dimethylated nuclear proteins at the single cell level. Nuclear AF488 dye intensities are compared to the mean value for DMSO treated cells (MIN) to report percent of inhibition for each compound-treated well.
# In this assay, the cell potency (EC50) of each compound was determined from a ten point (1:3 serial dilution; top compound concentration of 10000 nM) titration curve using the following outlined procedure. Each well of a BD falcon collagen coated black/clear bottom 384-well plate was seeded with 4000 MCF-7 cells in 30 μl media and allowed to attach for 5 h. Media is ATCC-formulated Eagle's Minimum Essential Medium, Catalog No. 30-2003. To make the complete growth medium, the following components were added to the base medium: 0.01 mg/mL human recombinant insulin; fetal bovine serum to a final concentration of 10%. Additional 30 μl of media containing 2× compounds were added to each well. Cells were treated for 3 days in 37° C. CO2 incubator. On day 3, cells were fixed with Cytofix, permeabilized with 0.4% Triton-X-100/Cytofix, and washed with D-PBS without Ca/Mg. Cells were blocked with Licor Odessey blocking reagent for 1 h at room temperature, followed by incubation with anti-SDMA (1:1000) antibody at 4° C. overnight. 1° antibody was removed, followed by three washings with DPBS without Ca/Mg and 0.05% Tween20. Hoechst (5 μg/mL), Cell Mask deep stain (1:2000) and Alexa488-conjugated goat anti-rabbit IgG (2 μg/mL) was added for 1 h at room temperature. A final washing step (three washes) was performed before sealing plate for imaging on In Cell Analyzer 2200 or Opera-Phenix. Images from analyzer were uploaded to Columbus (at WP or BOS) for image analysis. IC50 values were determined by 4 parameters robust fit of percent fluorescence units vs. (Log10) compound concentrations.
# [1] = biological target: T2, PRMT5-MEP50 enzyme complex (Homo sapiens, UniProt O14744); assay: PRMT5-MEP50 Enzyme Methylation Assay (Version B); assay type: biochemical
# T2 construct: Full-length (FL)-PRMT5-MEP50 enzyme complex (recombinant proteins from baculovirus-transfected Sf21 cells: FL-PRMT5; MW=73837 kDa and FL-MEP50; MW=38614); made in house; host or cells: baculovirus-transfected Sf21 cells
# Procedure: PRMT5-MEP50 Enzyme Methylation Assay (Version B)
# PRMT5-MEP50 biochemical assay is a direct measurement of the methylation activity of the enzyme complex on a short peptide substrate derived from the N-terminus of H4 histone. Methylation experiment was performed with recombinant PRMT5-MEP50 protein complex. The assessment of inhibitory effect (EC50) of small molecules was measured by the effectiveness of the compounds to inhibit this reaction.
# In this assay, the potency (EC50) of each compound was determined from a twenty-point (1:2 serial dilution; top compound concentration of 100000 nM) titration curve using the following outlined procedure. To each well of a white ProxiPlus 384 well-plate, 100 nL of compound (1% DMSO in final assay volume of 10 μL) was dispensed, followed by the addition of 8 μL of 1× assay buffer (50 mM Bicine pH 8.0, 1 mM DTT, 0.004% Tween20, 0.01% BSA) containing 0.625 nM of Full-length (FL)-PRMT5-MEP50 enzyme complex (recombinant proteins from baculovirus-transfected Sf21 cells: FL-PRMT5; MW=[…] and FL-MEP50; MW=38614). Plates were sealed and placed in a 37° C. humidified chamber for 30 minutes pre-incubation with compounds. Subsequently, each reaction was initiated by the addition of 2 μL 1× assay buffer containing 375 nM biotinylated H4R3 (MeI) peptide, and 75 μM S-(5′-Adenosyl)-L-Methionine Chloride (SAM). The final reaction in each well of 10 μL consists of 0.5 nM PRMT5-MEP50, 75 nM biotinylated-peptide, and 15 μM SAM. Methylation reactions were allowed to proceed for 150 minutes in a sealed plate at 37° C. Reactions were immediately quenched by the addition of 1 μL of 10% formic acid. Plates were then frozen and shipped to SAMDI™ Tech Inc. to determine the percent conversion from […]. Dose-response curves were generated by plotting percent effect (% product conversion; Y-axis) vs. Log 10 compound concentrations (X-axis). EC50 values were determined by non-linear regression according to models for either sigmoidal (4 parameters) or biphasic (7 parameters) dose-response curves.
# [2] = first of two EC50s: 7 parameters biphasic model, read-out: Enzyme Methylation Assay Version B (EC50_1)
# [3] = second of two EC50s: 7 parameters biphasic model, read-out: Enzyme Methylation Assay Version B (EC50_2)
# [4] = only one EC50 shown: 4 parameters single site sigmoidal model, 30 min pre-incubation, read-out: Enzyme Methylation Assay Version B (EC50)
# T2 sequence (O14744 whole entry): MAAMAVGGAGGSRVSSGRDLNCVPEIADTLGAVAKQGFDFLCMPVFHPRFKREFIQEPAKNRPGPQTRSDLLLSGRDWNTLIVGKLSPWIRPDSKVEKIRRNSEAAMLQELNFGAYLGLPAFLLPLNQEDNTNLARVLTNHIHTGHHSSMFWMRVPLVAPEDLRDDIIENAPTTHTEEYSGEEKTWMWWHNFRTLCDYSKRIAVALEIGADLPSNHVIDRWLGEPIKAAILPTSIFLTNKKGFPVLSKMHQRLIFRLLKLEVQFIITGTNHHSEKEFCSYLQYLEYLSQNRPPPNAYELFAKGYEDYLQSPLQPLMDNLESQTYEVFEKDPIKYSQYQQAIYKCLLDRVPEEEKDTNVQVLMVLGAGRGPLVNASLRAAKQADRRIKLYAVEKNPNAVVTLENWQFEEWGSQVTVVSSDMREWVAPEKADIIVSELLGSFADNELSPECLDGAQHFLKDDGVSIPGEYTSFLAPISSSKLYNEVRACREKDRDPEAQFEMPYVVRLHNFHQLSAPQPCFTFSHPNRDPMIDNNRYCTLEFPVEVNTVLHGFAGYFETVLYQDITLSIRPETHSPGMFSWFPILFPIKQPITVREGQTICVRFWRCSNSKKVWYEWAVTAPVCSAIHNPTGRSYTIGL
# T2 sequence (Q9BQA1 whole entry partner): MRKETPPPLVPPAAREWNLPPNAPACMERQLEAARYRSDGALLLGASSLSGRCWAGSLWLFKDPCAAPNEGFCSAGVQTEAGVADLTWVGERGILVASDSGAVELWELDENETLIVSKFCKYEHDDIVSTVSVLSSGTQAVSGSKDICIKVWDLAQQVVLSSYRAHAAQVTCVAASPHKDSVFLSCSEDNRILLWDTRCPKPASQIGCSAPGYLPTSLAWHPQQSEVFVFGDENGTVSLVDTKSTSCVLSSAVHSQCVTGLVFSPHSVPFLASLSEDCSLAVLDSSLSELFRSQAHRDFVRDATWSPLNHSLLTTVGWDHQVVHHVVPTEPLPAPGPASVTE
# T1 sequence (O14744 whole entry): as the sequence (O14744 whole entry) above
# T1 sequence (Q9BQA1 whole entry partner): as the sequence (Q9BQA1 whole entry partner) above
SMILES,EC50 (PRMT5),"EC50 [1, 2]","EC50 [1, 3]","EC50 [1, 4]"
"CC1(C)OC(=O)Nc2cc(C(=O)N3CC[C@H](N4CCc5ccccc5C4)[C@@H](O)C3)ccc21 [Example 97, 7-((3S,4S)-4-(3,4-dihydroisoquinolin-2(1H)-yl)-3-hydroxypiperidine-1-carbonyl)-4,4-dimethyl-1,4-dihydro-2H-benzo[d][1,3]oxazin-2-one]",59 nM,5.4 nM,2850 nM,–
"CC(=O)N1CCC(Nc2cc(C(=O)N3CC[C@@H](N4CCc5ccccc5C4)[C@H](O)C3)ccn2)C(F)(F)C1 (single isomer, unassigned) [Example 9]",1680 nM,61 nM,8790 nM,–
"CC1OC(=O)Nc2cc(C(=O)N3CC[C@@H](N4CCc5ccccc5C4)[C@H](O)C3)ccc21 (single isomer, unassigned) [Example 93]",182 nM,~18 nM,11800 nM,–
"O=C(c1ccc(C(=O)N2C3CCC2COC3)cc1)N1CC[C@@H](N2CCc3ccccc3C2)[C@H](O)C1 [Example 36, (4-(3-oxa-8-azabicyclo[3.2.1]octane-8-carbonyl)phenyl)((3R,4R)-4-(3,4-dihydroisoquinolin-2(1H)-yl)-3-hydroxypiperidin-1-yl)methanone]",> 10000 nM,~552 nM,> 100000 nM,–
"O=C(c1ccc(C(=O)N2C3CCC2COC3)cc1)N1CC[C@@H](N2CCc3c(F)cccc3C2)[C@H](O)C1 [Example 38, (4-(3-oxa-8-azabicyclo[3.2.1]octane-8-carbonyl)phenyl)((3R,4R)-4-(5-fluoro-3,4-dihydroisoquinolin-2(1H)-yl)-3-hydroxypiperidin-1-yl)methanone]",> 10000 nM,~402 nM,> 100000 nM,–
"CCOc1cc(C(=O)N2C3CCC2COC3)ccc1C(=O)N1CC[C@@H](N2CCc3ccccc3C2)[C@H](O)C1 [Example 34, (4-(3-oxa-8-azabicyclo[3.2.1]octane-8-carbonyl)-2-ethoxyphenyl)((3R,4R)-4-(3,4-dihydroisoquinolin-2(1H)-yl)-3-hydroxypiperidin-1-yl)methanone]",2220 nM,~38 nM,20600 nM,–
"CC1OC(=O)Nc2cc(C(=O)N3CC[C@@H](N4CCc5ccccc5C4)[C@H](O)C3)ccc21 (single isomer, unassigned) [Example 92]",32 nM,4.4 nM,2460 nM,–
"CC(=O)N1CCC(Nc2cc(C(=O)N3CCC(N4CCc5ccccc5C4)C(O)C3C)ccn2)CC1 (single isomer, unassigned) [Example 20, l-(4-((4-(4-(3,4-dihydroisoquinolin-2(1H)-yl)-3-hydroxy-2-methylpiperidine-1-carbonyl)pyridin-2-yl)amino)piperidin-1-yl)ethan-1-one]",12 nM,4.4 nM,1500 nM,–

# Now from value to compound:
EC50 (PRMT5),"EC50 [1, 2]","EC50 [1, 3]","EC50 [1, 4]",SMILES
326 nM,16 nM,8570 nM,–,"CC(=O)N1CCC(Nc2cc(C(=O)N3CC[C@H](N4CCc5ccccc5C4)[C@@H](O)C3)ccn2)C(F)(F)C1 (single isomer, unassigned) [Example 7]"
14 nM,9.3 nM,2040 nM,–,"COc1cnc(NC2CCN(C(C)=O)CC2)cc1C(=O)N1CC[C@H](N2CCc3ccccc3C2)[C@@H](O)C1 [Example 88, 1-(4-((4-((3S,4S)-4-(3,4-dihydroisoquinolin-2(1H)-yl)-3-hydroxypiperidine-1-carbonyl)-5-methoxypyridin-2-yl)amino)piperidin-1-yl)ethan-1-one]"
24 nM,4.8 nM,2690 nM,–,"CC(=O)N1CCC(Nc2cc(C(=O)N3CC[C@H](N4CCc5ccccc5C4)[C@@H](O)C3)ccn2)C(F)(F)C1 (single isomer, unassigned) [Example 6]"
> 10000 nM,–,–,17800 nM,"Cc1ccc2c(c1)CN(C1CCN(C(=O)c3ccc(OCC(F)(F)F)nc3)CC1O)CC2 (single isomer, unassigned) [Example 48, ((3S,4S or 3R,4R)-3-hydroxy-4-(7-methyl-3,4-dihydroisoquinolin-2(1H)-yl)piperidin-1-yl)(6-(2,2,2-trifluoroethoxy)pyridin-3-yl)methanone]"
15 nM,3.2 nM,1040 nM,–,"CS(=O)(=O)N1CCC(Nc2cc(C(=O)N3CC[C@H](N4CCc5ccccc5C4)[C@@H](O)C3)c(F)cn2)CC1 [Example 105, ((3S,4S)-4-(3,4-dihydroisoquinolin-2(1H)-yl)-3-hydroxypiperidin-1-yl)(5-fluoro-2-((1-(methylsulfonyl)piperidin-4-yl)amino)pyridin-4-yl)methanone]"
1580 nM,~56 nM,25400 nM,–,"CC(=O)N1CCC(Nc2cc(C(=O)N3CCC(N4CCc5ccccc5C4)C(O)C3C)ccn2)CC1 (single isomer, unassigned) [Example 21, 1-(4-((4-(4-(3,4-dihydroisoquinolin-2(1H)-yl)-3-hydroxy-2-methylpiperidine-1-carbonyl)pyridin-2-yl)amino)piperidin-1-yl)ethan-1-one]"
365 nM,12 nM,9550 nM,–,"O=C(c1cn2c(n1)CCC(C(F)(F)F)C2)N1CC[C@H](N2CCc3ccccc3C2)[C@@H](O)C1 (single isomer, unassigned) [Example 83]"
4260 nM,~76 nM,33500 nM,–,"O=C(c1cc2n(n1)CCN(CC(F)(F)F)C2)N1CC[C@H](N2CCc3ccccc3C2)[C@@H](O)C1 [Example 50, ((3S,4S)-4-(3,4-dihydroisoquinolin-2(1H)-yl)-3-hydroxypiperidin-1-yl)(5-(2,2,2-trifluoroethyl)-4,5,6,7-tetrahydropyrazolo[1,5-a]pyrazin-2-yl)methanone]"
3950 nM,~110 nM,> 100000 nM,–,"CC(C)(C#N)c1ccc(C(=O)N2CC[C@H](N3CCc4ccccc4C3)[C@@H](O)C2)cn1 (single isomer, unassigned) [Example 89]"
> 10000 nM,–,–,2160 nM,"O=C(c1ccn(CC(F)(F)F)c(=O)c1)N1CC[C@@H](N2CCc3ccccc3C2)[C@H](O)C1 [Example 32, 4-((3R,4R)-4-(3,4-dihydroisoquinolin-2(1H)-yl)-3-hydroxypiperidine-1-carbonyl)-1-(2,2,2-trifluoroethyl)pyridin-2(1H)-one]"
